This note sets out measurements from US20080051387A1, “TETRAHYDROPYRIDO[3,4-D]PYRIMIDINES AND RELATED ANALOGUES” (priority 2006, published 2008).

In the first test the target is T1, chimeric human H3 receptor (Homo sapiens, UniProt Q9Y5N1).
T1 construct: rat Galpha-i2 (Gnai2, rat); made in house; host or cells: Sf9 insect cells (baculovirus); P2 membranes
T1 sequence (Q9Y5N1 with tags, fused parts or gaps): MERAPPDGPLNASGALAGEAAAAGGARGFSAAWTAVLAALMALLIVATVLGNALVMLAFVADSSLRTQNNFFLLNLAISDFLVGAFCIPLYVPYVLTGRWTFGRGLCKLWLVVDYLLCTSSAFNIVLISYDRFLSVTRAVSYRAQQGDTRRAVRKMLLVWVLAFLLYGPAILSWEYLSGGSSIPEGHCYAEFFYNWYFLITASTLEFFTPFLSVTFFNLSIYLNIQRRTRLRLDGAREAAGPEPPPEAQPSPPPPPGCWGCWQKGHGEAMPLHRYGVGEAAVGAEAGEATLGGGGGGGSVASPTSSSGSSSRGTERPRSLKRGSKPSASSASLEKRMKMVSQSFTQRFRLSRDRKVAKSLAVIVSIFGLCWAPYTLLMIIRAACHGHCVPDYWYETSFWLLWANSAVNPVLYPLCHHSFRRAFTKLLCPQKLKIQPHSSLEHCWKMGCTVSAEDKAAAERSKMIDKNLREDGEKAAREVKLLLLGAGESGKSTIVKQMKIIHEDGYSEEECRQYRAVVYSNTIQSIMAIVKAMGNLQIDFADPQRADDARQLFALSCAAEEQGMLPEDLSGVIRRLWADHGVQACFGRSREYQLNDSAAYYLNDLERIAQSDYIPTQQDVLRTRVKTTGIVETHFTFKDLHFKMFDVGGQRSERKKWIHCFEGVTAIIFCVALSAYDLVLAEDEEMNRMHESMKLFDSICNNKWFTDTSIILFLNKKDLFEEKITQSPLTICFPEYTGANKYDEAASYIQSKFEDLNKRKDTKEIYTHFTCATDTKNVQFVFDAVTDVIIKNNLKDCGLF
The experiment in a line: Chimeric human H3 receptor GTP binding assay (agonist-stimulated GTP-gamma35S binding, Example 7). The format is biochemical. As to conditions: P2 membranes of Sf9 cells, 1 μM histamine as agonist, Ki from IC50 by Cheng-Prusoff; read-out: Ki. An excerpt:
This Example illustrates a representative assay for evaluating agonist-stimulated GTP-gamma^35S binding (“GTP binding”) activity. […] This agonist-stimulated GTP binding activity can also be used to detect partial agonism mediated by antagonist compounds. A compound analyzed in this assay is referred to herein as a “test compound.”
Four independent baculoviral stocks (one directing the expression of the chimeric human H3 receptor and three directing the expression of each of the three subunits of a heterotrimeric G-protein) are used to infect a culture of Sƒ9 cells as described above. P2 membranes are prepared as described above, and agonist-stimulated GTP binding on the P2 membranes is assessed using histamine (Sigma Chemical Co., St. Louis, Mo.) as agonist in order to ascertain that the receptor/G-protein-alpha-beta-gamma combination(s) yield a functional response as measured by GTP binding. P2 membranes are resuspended by Dounce homogenization (tight pestle) in GTP binding assay buffer (50 mM Tris pH 7.4, 120 mM NaCl, 5 mM MgCl2, 2 mM EGTA, 1 mg/ml BSA, 0.2 mg/ml bacitracin, 0.02 mg/ml aprotinin, 0.01 mg/ml saponin, 10 μM GDP) and added to assay tubes at a concentration of 35 μg protein/reaction tube. After adding increasing doses of histamine at concentrations ranging from 10-12 M to 10^−5 M, reactions are initiated by the addition of 125 pM GTP-gamma^35S (PERKIN ELMER; Boston, Mass.) with a final assay volume of 0.20 ml. In competition experiments, non-radiolabeled test compounds are added to separate reactions at concentrations ranging from 10^−10 M to 10^−6 M along with 1 μM histamine to yield a final volume of 0.20 ml.
Neutral antagonists are antagonists that are substantially free of inherent agonist activity, and include those test compounds that reduce the histamine-stimulated GTP binding activity towards, but not below, baseline levels. In contrast, in the absence of added histamine, inverse agonists reduce the GTP binding activity of the receptor-containing membranes below baseline.
After a 60-min incubation at room temperature, reactions are terminated by vacuum filtration over WHATMAN GF/C filters (pre-soaked in wash buffer, 0.1% BSA) followed by washing with ice-cold wash buffer (50 mM Tris pH 7.4, 120 mM NaCl). The amount of receptor-bound (and thereby membrane-bound) GTP-gamma^35S is determined by measuring the filter-bound radioactivity, preferably by liquid scintillation spectrometry of the washed filters. Non-specific binding is determined in parallel assays including 10 μM unlabeled GTP-gammaS and typically represents less than 5 percent of total binding. Data is expressed as percent above basal (baseline). The results of GTP binding experiments are analyzed using SIGMAPLOT software (SPSS Inc., Chicago, Ill.). IC50 values are calculated by non-linear regression analysis of dose-response curves using Kaleidograph (Synergy Software, Reading, Pa.).
Alternatively the data is analyzed as follows. First, the average bound radioactivity from negative control wells (no agonist) is subtracted from the bound radioactivity detected for each of the other experimental wells. Second, average bound radioactivity is calculated for the positive control wells (agonist wells). Then, percent inhibition for each compound tested is calculated using the equation: [formula]
Calculated IC50 values are converted to Ki values by the Cheng-Prusoff correction (Cheng and Prusoff (1973) Biochem. Pharmacol. 22(23):3099-3108). Accordingly, the following equation: Ki=IC50/(1+[L]/EC50) is used, where [L] is the histamine concentration in the GTP binding assay, and EC50 is the concentration of histamine producing a 50% response, as determined by a dose-response analysis using concentrations of histamine ranging from 10^−10 M to 10^−6 M. […]
For orientation: GTPγS is a poorly hydrolysed GTP analogue; its binding reports G protein activation.
For orientation: Ki means a dissociation constant, usually derived from enzyme kinetics or from competition with a known ligand. Turning to `CC(C)(C)N1CCN(c2ncnc3c2CCN(Cc2ccccc2)C3)CC1` [Compound 13, 7-benzyl-4-(4-tert-butylpiperazin-1-yl)-5,6,7,8-tetrahydropyrido[3,4-d]pyrimidine], the Ki was less than 1000 nM.

As to `c1ccc(CN2CCc3ncnc(N4CCN(C5CCC5)CC4)c3CC2)cc1` [Compound 142, 7-benzyl-4-(4-cyclobutylpiperazin-1-yl)-6,7,8,9-tetrahydro-5H-pyrimido[4,5-d]azepine], the inhibitory constant (Ki) is less than 1000 nM. As to `CC(=O)c1ccc(OCC(=O)N2CCc3ncnc(N4CCN(C5CCC5)CC4)c3CC2)cc1` [Compound 143, 1-(4-{2-[4-(4-cyclobutylpiperazin-1-yl)-5,6,8,9-tetrahydro-7H-pyrimido[4,5-d]azepin-7-yl]-2-oxoethoxy}phenyl)ethanone], the inhibition constant (Ki) is less than 1000 nM. Consider `c1nc2c(c(N3CCN(C4CCC4)CC3)n1)CCNCC2` [Compound 144, 4-(4-cyclobutylpiperazin-1-yl)-6,7,8,9-tetrahydro-5H-pyrimido[4,5-d]azepine], for which the Ki is less than 1000 nM.

The same test, now with this note: P2 membranes of Sf9 cells, 1 μM histamine as agonist; read-out: Ki in the assay of Example 7.
With `CC(=O)c1ccc(N2CCc3nc(N4CCN(C5CCC5)CC4)ncc3C2)cc1` [Compound 5, 1-{4-[2-(4-Cyclobutyl-piperazin-1-yl)-7,8-dihydro-5H-pyrido[4,3-d]pyrimidin-6-yl]-phenyl}-ethanone], the Ki was less than 1000 nM.

Regarding `c1nc2c(c(N3CCN(C4CCC4)CC3)n1)CCN(CC1CCCCC1)CC2` [Compound 6, 4-(4-Cyclobutyl-piperazin-1-yl)-7-cyclohexylmethyl-6,7,8,9-tetrahydro-5H-pyrimido[3,4-d]azepine], the inhibitory constant (Ki) was less than 1000 nM. As for `CC(=O)c1ccc(N2CCc3ncnc(N4CCN(C5CCC5)CC4)c3CC2)cc1` [Compound 7, 1-{4-[4-(4-Cyclobutyl-piperazin-1-yl)-5,6,8,9-tetrahydro-pyrimido[4,5-d]azepin-7-yl]-phenyl}-ethanone], the inhibition constant Ki is less than 1000 nM. Same read-out and setting: the figure for `O=C(c1ccccc1)N1CCc2ncnc(N3CCN(C4CCC4)CC3)c2CC1` [Compound 8, [4-(4-Cyclobutyl-piperazin-1-yl)-5,6,8,9-tetrahydro-pyrimido[4,5-d]azepin-7-yl]-phenyl-methanone] is less than 1000 nM; for `c1nc(N2CCN(C3CCC3)CC2)nc2c1CCN(CC1CCCCC1)CC2` [Compound 9, 2-(4-Cyclobutyl-piperazin-1-yl)-7-cyclohexylmethyl-6,7,8,9-tetrahydro-5H-pyrimido[4.5-d]azepine] it is less than 1000 nM.

Still in this test, the particulars now being: assay of Example 7; symbol "*" in column headed Ki; read-out: Ki.
Consider `O=C(c1ccccc1)N1CCc2cnc(N3CCN(C4CCC4)CC3)nc2CC1` [Compound 183, 7-benzoyl-2-(4-cyclobutylpiperazin-1-yl)-6,7,8,9-tetrahydro-5H-pyrimido[4,5-d]azepine], for which the inhibition constant (Ki) is less than 1000 nM. The same measure, in the same setting: the figure for `c1nc(N2CCN(C3CCC3)CC2)nc2c1CCN(C1CCC1)CC2` [Compound 590, 7-cyclobutyl-2-(4-cyclobutylpiperazin-1-yl)-6,7,8,9-tetrahydro-5H-pyrimido[4,5-d]azepine] is less than 1000 nM.

The target in another test is T1, chimeric human H3 receptor. Kind of test: Chimeric human H3 receptor screening GTP binding assay (inhibition of histamine-stimulated GTP-gamma35S binding, Example 8). The format is biochemical. As to conditions: symbol ! in Ki; test compound 4 μM, 1 μM histamine; read-out: percent inhibition of agonist-induced GTP-gammaS binding to H3. Summed up:
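Sf9 membranes co-expressing chimeric human H3 receptor and heterotrimeric G-protein (35 μg protein) incubated 60 min at room temperature with 4 μM compound, 1 μM histamine and 125 pM GTP-gamma35S in pH 7.4 buffer with 10 μM GDP. Filter-bound radioactivity, nonspecific (10 μM GTP-gammaS) subtracted, reported as % inhibition of histamine signal.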
For orientation: inhibition means the change of the read-out against control, counted positive when it falls. Regarding `Cc1c(F)cccc1CN1CCc2nc(N3CCN(C4CCC4)CC3)ncc2C1` [Compound 644, 2-(4-cyclobutylpiperazin-1-yl)-6-(3-fluoro-2-methylbenzyl)-5,6,7,8-tetrahydropyrido[4,3-d]pyrimidine], the inhibition at 4 µM is not below 90%. For the compound `Clc1ccccc1CN1CCc2nc(N3CCN(C4CCC4)CC3)ncc2C1` [Compound 645, 6-(2-chlorobenzyl)-2-(4-cyclobutylpiperazin-1-yl)-5,6,7,8-tetrahydropyrido[4,3-d]pyrimidine], the inhibition at 4 µM is not below 90%. Turning to `Clc1ccc(CN2CCc3nc(N4CCN(C5CCC5)CC4)ncc3C2)c(Cl)c1` [Compound 646, 2-(4-cyclobutylpiperazin-1-yl)-6-(2,4-dichlorobenzyl)-5,6,7,8-tetrahydropyrido[4,3-d]pyrimidine], the inhibition at 4 µM is not below 90%. `c1cc(N2CCCC2)ccc1CN1CCc2nc(N3CCN(C4CCC4)CC3)ncc2C1` [Compound 647, 2-(4-cyclobutylpiperazin-1-yl)-6-(4-pyrrolidin-1-ylbenzyl)-5,6,7,8-tetrahydropyrido[4,3-d]pyrimidine]: the inhibition at 4 µM was not below 90%.
